# From patent publication US11771645B2, “Transdermally absorbable base material containing lipid peptide compound” (KYUSHU UNIVERSITY, priority 2015, dated 2023)
# Test system: Yucatan Micro Pig (YMP) skin
# Test: Skin permeability test, fluorescently-labeled insulin in skin extract and receiver solution, vertical Franz type diffusion cell (Examples 8, 12, 14, 18)
# Assay type: in vitro ADME
# Experimental: Yucatan Micro Pig (YMP) skin (by Charles River Laboratories Japan, Inc.) stored at −80° C. was thawed at room temperature (roughly 25° C.), and was then subjected to the fat removal (to have a skin thickness of roughly 2 mm). Thus, the YMP skin of roughly 2 cm square was prepared.
# To a receiver phase of the vertical Franz type diffusion cell (effective area: 0.785 cm^2), 5.0 mL of phosphate buffered saline (PBS of pH 7.4, stirred at 500 rpm) was added, and the above-described YMP skin (temperature of PBS on skin surface: 32.5° C.) was set. […]
# The skin was taken out after 24 hours, and washed with the extractant [solution of PBS, acetonitrile, and methanol mixed at 2:1:1 (v/v/v)]. […] The extracted solution thus obtained was filtered using a PTFE filter (0.20 μm), and then, the quantity of the fluorescently-labeled insulin in the solution was determined using the fluorescence spectrometer LS-55 (manufactured by PerkinElmer, Inc.) (each calculated as the average value of three tests). The fluorescence spectrometer measurement was made at an excitation wavelength of 495 nm and a measurement wavelength of 521 nm. […]
# The skin was taken out after 24 hours, and washed with the extractant [solution of PBS, acetonitrile, and methanol mixed at 2:1:1 (v/v/v)]. […] The fluorescence spectrometer measurement was made at an excitation wavelength of 495 nm and a measurement wavelength of 521 nm. […]
substance,measurement,value
polyoxyethylene lauryl ether,transdermal absorption enhancing effect of insulin,no transdermal absorption enhancing effect
